# Source: US4026888A, “Certain derivatives of particular 3-thiolated cephalosporins” (priority 1976, dated 1977)
# Like-named read-outs stand apart in the source and are kept apart here.
# Columns and labels:
# Str. pneumoniae A9585 = test: Antibiotic activity in nutrient broth (MIC); assay type: cell-based; details: Streptococcus pneumoniae, A9585, inoculum 10^-3 dilution of overnight broth culture; 45% AAB + 5% serum + 50% broth; derivatives adjusted for BL-S640 content
# Text: (§1) Antibiotic Activity In Nutrient Broth
# (§2) * 45% AAB+ 5% serum+ 50% broth listed above.
# (§3) ** Dilution of overnight broth culture.
# (§4) Antibiotic Spectrum Nutrient Broth
# (§5) * 45% AAB + 5% serum + 50% broth
# (§6) Antibiotic Spectrum in Nutrient Broth
# (§7) *45% AAB + 5% serum + 50% broth listed above.
# Str. pyogenes A9604 = test: Antibiotic activity in nutrient broth (MIC); assay type: cell-based; details: Streptococcus pyogenes, A9604, inoculum 10^-3; 45% AAB + 5% serum + 50% broth; derivatives adjusted for BL-S640 content; read-out: MIC
# Text: as §1, §2, §3, §4, §5, §6, §7
# E. coli A9675 = test: Antibiotic activity in nutrient broth (MIC); assay type: cell-based; details: Escherichia coli, A9675, inoculum 10^-4; derivatives adjusted for BL-S640 content; read-out: MIC
# Text: as §1, §3, §4, §6
# E. coli Juhl A15119 = test: Antibiotic activity in nutrient broth (MIC); assay type: cell-based; details: Escherichia coli, JUHLA15119, inoculum 10^-4; derivatives adjusted for BL-S640 content; read-out: MIC
# Text: as §1, §3, §4, §6
# Ent. cloacae A9656 = test: Antibiotic activity in nutrient broth (MIC); assay type: cell-based; details: Enterobacter cloacae, A9656, inoculum 10^-4; derivatives adjusted for BL-S640 content
# Text: as §1, §3, §4, §6
# Ent. cloacae A9657 = test: Antibiotic activity in nutrient broth (MIC); assay type: cell-based; details: Enterobacter cloacae, A9657, inoculum 10^-4; derivatives adjusted for BL-S640 content; read-out: MIC
# Text: as §1, §3, §4, §6
# Ent. cloacae A9659 = test: Antibiotic activity in nutrient broth (MIC); assay type: cell-based; details: Enterobacter cloacae, A9659, inoculum 10^-4; derivatives adjusted for BL-S640 content; read-out: MIC
# Text: as §1, §3, §4, §6
# K. pneumoniae A15130 = test: Antibiotic activity in nutrient broth (MIC); assay type: cell-based; details: Klebsiella pneumoniae, A15130, inoculum 10^-4; derivatives adjusted for BL-S640 content; read-out: MIC
# Text: as §1, §3, §4, §6
# K. pneumoniae A9977 [1] = test: Antibiotic activity in nutrient broth (MIC); assay type: cell-based; details: Klebsiella pneumoniae, inoculum 10^-4, derivatives adjusted for BL-S640 content, read-out: MIC
# Text: as §1, §3, §4, §6
# Pr. mirabilis A9900 = test: Antibiotic activity in nutrient broth (MIC); assay type: cell-based; details: Proteus mirabilis, inoculum 10^-4, derivatives adjusted for BL-S640 content
# Text: as §1, §3, §4, §6
# Pr. morganii A15153 = test: Antibiotic activity in nutrient broth (MIC); assay type: cell-based; details: Morganella morganii, A15153, inoculum 10^-4; derivatives adjusted for BL-S640 content; read-out: MIC
# Text: as §1, §3, §4, §6
# Ps. aeruginosa A9843A = test: Antibiotic activity in nutrient broth (MIC); assay type: cell-based; details: Pseudomonas aeruginosa
# Text: as §1, §3, §4, §6
# S. aureus BX1633 A9606 = test: Antibiotic activity in nutrient broth (MIC); assay type: cell-based; details: Staphylococcus aureus, derivatives adjusted for BL-S640 content, read-out: MIC
# Text: as §1, §3, §4, §6
# [2] = system: S. aureus Meth-Res A15097; test: Antibiotic activity in nutrient broth (MIC); assay type: cell-based; details: Staphylococcus aureus, inoculum 10^-3; Meth-Res; derivatives adjusted for BL-S640 content; read-out: MIC
# Text: as §1, §3, §4, §6
# S. aureus Smith A9537 = test: Antibiotic activity in nutrient broth (MIC); assay type: cell-based; details: Staphylococcus aureus, SMITHA9537, inoculum 10^-4, derivatives adjusted for BL-S640 content, read-out: MIC
# Text: as §1, §3, §4, §6
# Sal. enteritidis A9531 = test: Antibiotic activity in nutrient broth (MIC); assay type: cell-based; details: Salmonella enterica, ENTERITIDIS, inoculum 10^-4; derivatives adjusted for BL-S640 content; read-out: MIC
# Text: as §1, §3, §4, §6
# Ser. marcescens A20019 = test: Antibiotic activity in nutrient broth (MIC); assay type: cell-based; details: Serratia marcescens, A20019, inoculum 10^-4; derivatives adjusted for BL-S640 content
# Text: as §1, §3, §4, §6
# [3] = Mouse blood levels after intramuscular administration; assay type: in vivo; details: mouse, blood, im, 10 mg/kg, Example 3, IM 10 mg./kg., average of 3 experiments, read-out: Blood Levels
# Experimental: Mouse Blood Levels After Intramuscular Administration
# of 10 mg./kg. Body Weight
# The compounds were dissolved in 0.01% phosphate buffer.
# Mouse Blood Levels After IM
# Administration of 10 mg./kg. Body Weight
# The compounds were prepared in 0.01% phosphate
# The compounds were prepared in 0.01% phosphate buffer.
# [4] = Paper chromatography of rat urine for antibiotically active metabolites; assay type: in vivo; details: IM; rat urine 0-2 and 2-4 hours
# Experimental: Paper chromatograms were run on rat urine collected between 0 and 2 and between 2 and 4 hours following IM administration of BL-S1055 and 640, for the detection of antibiotically active metabolites using descending chromatography with system No. 9 (butyl acetate:n-butanol:glacial acetic acid:H2 O= 80:15:40:24).
# E. coli A15119 = test: Oral PD50 in mice; assay type: in vivo; details: oral, mice treated at 1 and 3.5 hours post-challenge
# Experimental: (§8) Comparative Oral PD50 Values of
# (§9) BL-S640 Derivatives in Mice
# (§10) *Mice were treated at 1 and 3.5 hours post-challenge.
# K. pneumoniae A9977 [5] = test: Oral PD50 in mice; assay type: in vivo; details: Klebsiella pneumoniae, A9977; oral; mice treated at 1 and 3.5 hours post-challenge; read-out: PD50
# Experimental: as §8, §9, §10
# P. mirabilis A9707 = test: Oral PD50 in mice; assay type: in vivo; details: Proteus mirabilis, mice treated at 1 and 3.5 hours post-challenge
# Experimental: as §8, §9, §10
# S. pyogenes A9604 = test: Oral PD50 in mice; assay type: in vivo; details: Streptococcus pyogenes, mice treated at 1 and 3.5 hours post-challenge
# Experimental: as §8, §9, §10
# P. mirabilis A9900 [6] = test: Oral PD50 in mice; assay type: in vivo; details: Proteus mirabilis, A9900, po, 3.5 h, oral; mice treated at 1 and 3.5 hours post-challenge; read-out: PD50
# P. mirabilis A9900 [7] = test: IM PD50 in mice; assay type: in vivo; details: Proteus mirabilis
# Text: Comparative IM PD50 Values of
# as §9
compound,measurement,setting,value
O=C(O)C1=C(CSc2cnn[nH]2)CS[C@@H]2[C@H](N3C(=O)[C@@H](c4ccc(O)cc4)NC3c3ccccc3S(=O)(=O)O)C(=O)N12 (stereo partly shown) [BL-S1055],MIC,Str. pneumoniae A9585,0.06 µg/mL
same,MIC,Str. pyogenes A9604,0.016 µg/mL
same,MIC,E. coli A9675,4 µg/mL
same,MIC,E. coli Juhl A15119,1 µg/mL
same,MIC,Ent. cloacae A9656,125 µg/mL
same,MIC,Ent. cloacae A9657,0.5 µg/mL
same,MIC,Ent. cloacae A9659,63 µg/mL
same,MIC,K. pneumoniae A15130,1 µg/mL
same,MIC,K. pneumoniae A9977 [1],0.5 µg/mL
same,MIC,Pr. mirabilis A9900,0.5 µg/mL
same,MIC,Pr. morganii A15153,32 µg/mL
same,MIC,Ps. aeruginosa A9843A,> 125 µg/mL
same,MIC,"S. aureus BX1633 A9606; BX1633A9606, inoculum 10^-2",2 µg/mL
same,MIC,"S. aureus BX1633 A9606; BX1633A9606, inoculum 10^-3",0.5 µg/mL
same,MIC,[2],4 µg/mL
same,MIC,S. aureus Smith A9537; + 50% serum,2 µg/mL
same,MIC,S. aureus Smith A9537; nutrient broth,0.13 µg/mL
same,MIC,Sal. enteritidis A9531,0.35 µg/mL
same,MIC,Ser. marcescens A20019,125 µg/mL
same,concentration at 0.25 h,[3]; 0.25 hr,10300 ng/mL
same,concentration at 0.5 h,[3]; 0.5 hr,9900 ng/mL
same,concentration at 1 h,[3]; 1 hr,7600 ng/mL
same,concentration at 1.5 h,[3]; 1.5 hr,6500 ng/mL
same,Hydrolysis to the parent compound (BL-S640),[4],complete hydrolysis
same,ED50,"E. coli A15119; Escherichia coli, A15119, po, 3.5 h, read-out: PD50",1.8 mg/kg
same,PD50,E. coli A15119,1.6 mg./kg./treatment
same,ED50,K. pneumoniae A9977 [5],1.6 mg/kg
same,ED50,P. mirabilis A9707,1 mg/kg
same,ED50,S. pyogenes A9604,0.4 mg/kg
same,ED50,P. mirabilis A9900 [6],8.2 mg/kg
same,ED50,P. mirabilis A9900 [7],1.6 mg/kg
